Data published in ChEMBL document CHEMBL1250475, “Inhibition of monoamine oxidase by indole and benzofuran derivatives” (Eur J Med Chem, 2010).

Assays:
[1] = molecular target: T1, Amine oxidase [flavin-containing] A (Homo sapiens, UniProt P21397); assay: Inhibition of human recombinant MAOA expressed in baculovirus infected BTI insect cells after 20 mins by spectrofluorimetric analysis
T1 sequence (P21397 whole entry): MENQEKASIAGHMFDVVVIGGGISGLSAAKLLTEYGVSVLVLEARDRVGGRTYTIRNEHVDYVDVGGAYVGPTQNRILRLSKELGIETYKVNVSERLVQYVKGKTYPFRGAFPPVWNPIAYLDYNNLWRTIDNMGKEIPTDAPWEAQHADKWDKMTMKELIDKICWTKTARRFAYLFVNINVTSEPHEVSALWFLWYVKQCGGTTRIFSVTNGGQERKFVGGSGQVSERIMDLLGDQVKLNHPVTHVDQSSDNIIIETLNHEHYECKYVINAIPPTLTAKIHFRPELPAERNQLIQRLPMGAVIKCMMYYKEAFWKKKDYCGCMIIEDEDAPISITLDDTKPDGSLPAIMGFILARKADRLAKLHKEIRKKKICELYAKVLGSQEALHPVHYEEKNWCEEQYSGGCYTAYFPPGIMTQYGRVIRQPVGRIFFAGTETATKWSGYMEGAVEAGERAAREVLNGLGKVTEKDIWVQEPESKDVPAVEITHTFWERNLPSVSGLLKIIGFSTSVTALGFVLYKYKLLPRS

Homo sapiens = species: Homo sapiens; assay: Selectivity ratio of Ki for human recombinant MAOA to Ki for human recombinant MAOB
[2] = molecular target: T2, Amine oxidase [flavin-containing] B (Homo sapiens, UniProt P27338); assay: Inhibition of human recombinant MAOB expressed in baculovirus infected BTI insect cells after 20 mins by spectrofluorimetric analysis
T2 sequence (P27338 whole entry): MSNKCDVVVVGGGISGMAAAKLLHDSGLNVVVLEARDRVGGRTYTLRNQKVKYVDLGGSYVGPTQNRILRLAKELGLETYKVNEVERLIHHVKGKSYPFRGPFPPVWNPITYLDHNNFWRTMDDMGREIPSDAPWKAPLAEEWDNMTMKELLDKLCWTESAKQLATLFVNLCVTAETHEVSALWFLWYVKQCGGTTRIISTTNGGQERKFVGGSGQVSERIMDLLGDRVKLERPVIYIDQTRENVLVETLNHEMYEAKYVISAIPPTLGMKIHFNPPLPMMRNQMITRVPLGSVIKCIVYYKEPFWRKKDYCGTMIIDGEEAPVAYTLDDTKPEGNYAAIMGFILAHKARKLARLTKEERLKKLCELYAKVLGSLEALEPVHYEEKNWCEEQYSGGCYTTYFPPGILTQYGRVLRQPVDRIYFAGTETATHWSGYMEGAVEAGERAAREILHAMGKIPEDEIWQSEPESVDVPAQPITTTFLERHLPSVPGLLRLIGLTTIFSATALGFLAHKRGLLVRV

[3] = molecular target: T2, Amine oxidase [flavin-containing] B; assay: Reversible inhibition of human recombinant MAOB expressed in baculovirus infected BTI insect cells at 2 times IC50 concentration preincubated for 60 mins measured after 15 mins; conditions: 0.25 h
[4] = molecular target: T2, Amine oxidase [flavin-containing] B; assay: Competitive inhibition of human recombinant MAOB expressed in baculovirus infected BTI insect cells at 0.015 to 0.06 uM by Lineweaver-Burke plot analysis

| SMILES | IC50 [1] [µM] | Ki [1] [µM] | Selectivity ratio (Homo sapiens) | IC50 [2] [µM] | Ki [2] [µM] | inhibition (INH) [3] | inhibition (INH) [4] |
| --- | --- | --- | --- | --- | --- | --- | --- |
| Cc1cc2cc(NC(=O)/C=C/c3ccccc3)ccc2[nH]1 | 663 | 175 | 22 | 18.8 | 8.01 |  |  |
| Cc1cc2cc(NC(=O)c3ccc[n+](C)c3)ccc2[nH]1 | 20.8 | 5.47 |  |  |  |  |  |
| Cc1cc2cc(NC(=O)c3ccc(Cl)c(Cl)c3)ccc2[nH]1 | 9.79 | 2.58 | 99 | 0.06 | 0.03 | Active | Active |
| Cc1cc2cc(NC(=O)c3ccccc3)ccc2[nH]1 | 150 | 39.5 | 24 | 3.84 | 1.65 |  |  |
| Cc1cc2cc(NC(=O)C3CCCCC3)ccc2[nH]1 | 69.4 | 18.3 | 6 | 6.96 | 3 |  |  |
| Cc1cc2cc(NC(=O)c3cccc(S(=O)(=O)O)c3)ccc2[nH]1 | 259 | 68.3 | 0.9 | 176 | 75.7 |  |  |

The remaining lines, values ahead:

| IC50 [1] [µM] | Ki [1] [µM] | Selectivity ratio (Homo sapiens) | IC50 [2] [µM] | Ki [2] [µM] | inhibition (INH) [3] | inhibition (INH) [4] | SMILES |
| --- | --- | --- | --- | --- | --- | --- | --- |
| 11.6 | 3.05 | 0.8 | 8.89 | 3.83 |  |  | O=C1Cc2cc(OC(=O)c3ccccc3)ccc2O1 |
| 7.66 | 2.02 | 5 | 0.99 | 0.43 | Active |  | O=C1Cc2cc(OC(=O)c3cccc(Cl)c3)ccc2O1 |
| 3.9 | 1.03 | 5 | 0.44 | 0.19 |  |  | O=C(/C=C/c1cccc(Cl)c1)Oc1ccc2c(c1)CC(=O)O2 |
| 7.67 | 2.02 | 0.5 | 9.83 | 4.23 |  |  | Cc1cc2cc(NC(=O)/C=C/c3cccc(Cl)c3)ccc2[nH]1 |
| 12.5 | 3.29 | 6 | 1.2 | 0.52 |  |  | O=C(/C=C/c1ccccc1)Oc1ccc2c(c1)CC(=O)O2 |
| 31 | 8.18 | 25 | 0.76 | 0.33 |  |  | Cc1cc2cc(NC(=O)c3cccc(Cl)c3)ccc2[nH]1 |
